“And” between values parts separate entries of the source, which are not always exact repeats. Equal values may be shown once.
Experiments:
[1] = test system: striped bass (M. saxatilis) larvae; test: Whole larva cortisol (RIA) in high-salinity stress; format: in vivo, Morone saxatilis; conditions: for Body Cortisol at 30 min: 30 min high-salinity stress
Description: (§1) A group of 30 larvae was promptly transferred from the 10-liter bucket and immediately divided into three 1-liter beakers (ten larvae in each beaker) containing 25-ppt NaCl in dechlorinated fresh water. These hypersaline exposure conditions were established following preliminary tests in which approximately 50% of the larvae survived after 30 minutes exposure. Larval survival at 0, 15 and 30 minutes was recorded, and five larvae at each time interval were quickly removed and sacrificed on dry ice. Samples were washed with chilled distilled water, dried on paper towel, placed into test tubes and lyophilized to constant weight. The dry weight of each hypersaline-exposed larva was recorded to the nearest 0.1 mg. Samples were kept at −80° C. for subsequent whole larva cortisol analysis.
Cortisol was measured on whole larva using a solid-phase radioimmunoassay (RIA) Coat-A-Count Cortisol kit (DPC, Los Angeles, Calif.) following the manufacturer's procedure. Whole body cortisol was extracted from lyophilized larvae with ethyl ether (Barry et al. 1995). Extraction efficiency was determined by adding 1000 dpm 1,2,6,7-^3H-cortisol to each larva sample (specific activity −67.0 Ci mmol^−1, Amersham, Piscataway, N.J.). Cortisol extracts were reconstituted in 150 μl RIA buffer (included in the cortisol RIA kit). Cortisol concentration was then determined in 100-μl aliquots. Spiking recovery was measured in unknown samples using three spiking dilutions (1, 3, 7 ng, Cortisol Immulite, DPC, Los Angeles, Calif.). […] Two additional 20-μl aliquots were taken to determine ^3H-cortisol recovery.

[2] = test system: striped bass (M. saxatilis) larvae; test: Salinity stress test, larval survival; format: in vivo, Morone saxatilis; conditions: for Survival (%) at 30 min: 30 min high-salinity stress (25 psu)
Description: as §1

[3] = test system: Gilthead sea bream, Sparus aurata larvae; test: Gilthead sea bream larvae fed enriched rotifers and Artemia; format: in vivo; conditions: 5 to 34-day-old sea bream larvae; DHA enriched vs no DHA containing rotifers and Artemia
Description: Gilthead sea bream, Sparus aurata and European sea bass, Dicentrarchus labrax larvae originated from spawns of locally maintained broodstock were stocked over three days with two-day-old larvae (40,000 larvae tank^−1). Sea bream larvae from day 3 to day 20 were fed twice daily rotifers that were previously enriched on first phototrophically grown Nannochloropsis sp. and then on either Algamac-2000 or PL-Cr. Rotifer and Artemia enrichments and larval feeding were carried out as described in Koven et al. 2001. Sea bream larval growth and survival as a function of enrichment materials was recorded on day 34. European sea bass larvae were maintained in darkness until day-8 when they started feeding on non-enriched Artemia nauplii until day 11. From day-11 to day-21, the larvae were fed twice daily under low illumination (approximately 100-lux) Algamac-2000 or PL-Cr enriched Artemia nauplii.
Total lipids were extracted from triplicate samples. Lipid weight was determined gravimetrically (Mettler UMT2 ±0.1 mg, Toledo, Switzerland) and expressed as percent DW of sample. Fatty acid methyl esters (FAME) were prepared from the whole lipid extract, and the lipid classes separated, saponified and transmethylated as described by Harel et al. (2000).

[4] = test system: striped bass (M. saxatilis) larvae; test: Striped bass larvae feeding experiment (day 24-46) on Artemia enriched with DHA/AA emulsions: growth, survivorship; format: in vivo, Morone saxatilis; conditions: day 46
Description: Newly hatched striped bass (M. saxatilis) larvae were obtained from the Aquaculture Research Center (ARC) of the Center of Marine Biotechnology (COMB), University of Maryland. Larvae were raised for 17 days post hatching on rotifers, Bracionus plicatilis (2-5 rotifers ml^−1), which were grown separately on fresh-water Chlorella sp. paste (0.5 g/10^6 rotifers/day, obtained from Martek BioSci. Inc. Columbia, Md.).
Seventeen days post-hatched larvae were randomly distributed in eighteen 60-liter rearing tanks at an initial density of 160 larvae per tank. The rearing tanks were gently aerated and the water volume exchanged 1-2 times per day with biofiltered, UV treated recirculating water. A 14:10 h light:dark photoperiod cycle was maintained using fluorescent lights (Daylight; 40 watts; 800-1200 lux at the water surface). Temperature was maintained at 24±2° C. and salinity at 2-6 psu. Water quality was monitored daily, and levels of total NH3, unionized N-3, NO2 and pH were maintained below 0.2 ppm, 0.001 ppm, 0.3 ppm and at 8.02, respectively, by partial replacement with fresh water.
Newly hatched Artemia nauplii were introduced to the larvae from day 17 until day 24 (once a day at 20-40 nauplii 1^−1), while rotifer concentration was reduced gradually to a complete removal by day 24.
Larvae then were fed twice daily with Artemia nauplii, enriched with nine dietary emulsions containing varying proportions of DHA and AA.
A 3×3 factorial design with two nutritional factors (DHA and AA) at three levels each and in duplicate blocks was used. This experimental design allowed for the simultaneous study of the effect of increasing dietary levels of DHA and AA either alone or in various combination of both fatty acids. Nine different emulsions having varying proportions of DHA-rich triacylglycerols from heterotrophically grown algae, Crypthecodinium spp. (0, 11.1 and 21.6 mg g^−1 lipids) and AA-rich triacylglycerols (3, 14.5 and 24.8 mg g^−1 lipids) from fungi, Mortierella spp. (DHASCO and ARASCO, Martek BioSci. Columbia, Md.) were formulated.
A mixture of 2% alginic acid, 2% polyoxyethylene sorbitan mono-oleate (Tween-80), 1% ascorbic acid, 1% vitamin-E, 1% silicon based anti-foaming agent (all mad e by Sigma Co. MO) and 5% soy lecithin (80% phosphatidylcholine, Archer Daniels Midland Co., Decatur, Ill.) were added to the oils (all additions made by weight). […]
Feeding experiments were terminated on day 46. […] Survivorship was determined based on the initial and final count of larvae in each rearing tank. […]

[5] = test system: white bass, Morone chrysops larvae; test: White bass larvae feeding (22 days) on enriched Artemia: growth, survival, total lipid; format: in vivo
Description: Larvae rearing. Newly hatched white bass, Morone chrysops larvae were obtained from AquaFutures Inc. (Turners Falls, Mass.). Larvae were grown for 17 days on rotifers, Bracionus plicatilis (2-5 rotifers/ml), which had been cultured on fresh water Chlorella (Martek BioSci. Inc. Columbia, Md.) paste (0.5 g/10^6 rotiferes/day). Larvae were randomly distributed in eighteen 60-liter larval rearing tanks at an initial density of 160 larvae per tank. The tanks were gently aerated and the water volume exchanged 1-2 times per day with biofiltered, U.V treated recirculating water. A 14:10 h light:dark photoperiod was maintained using fluorescent light tubes (Daylight; 40 watts; 800-1200 lux at the water surface). Temperature was maintained at 242° C. and salinity at 2-6 psu. Water quality was monitored daily and levels of total NH3, unionized NH3, NO2 and pH were maintained below 0.2 ppm, 0.001 ppm, 0.3 ppm and at 8.02, respectively. […]
Larvae were then fed twice daily with previously enriched Artemia nauplii, as described above, at a concentration of 50-100 nauplii/liter for the next 22 days.
[…] The dry weight of each larva was recorded to the nearest […] Nettler UMT2, Toledo, Switzerland). […] Survivorship was determined based on the initial and final count of larvae in each rearing tank.

[6] = dietary DHA 0.0 mg g^−1 D.W, pooled over AA levels

CC/C=C\C/C=C\C/C=C\C/C=C\C/C=C\C/C=C\CCC(=O)O [DHA, docosahexaenoic acid]
Body Cortisol at 0 min [1, 6]: 123 ± 8^A pg mg^−1 D.W | Body Cortisol at 30 min ([1]; dietary DHA 0.0 mg g^−1 D.W): 155 ± 16^B pg mg^−1 D.W | Body Cortisol at 0 min ([1]; dietary DHA 11.1 mg g^−1 D.W): 128 ± 16^A pg mg^−1 D.W | Body Cortisol at 30 min ([1]; dietary DHA 11.1 mg g^−1 D.W): 182 ± 22^AB pg mg^−1 D.W | Body Cortisol at 0 min ([1]; dietary DHA 21.6 mg g^−1 D.W): 118 ± 11^A pg mg^−1 D.W | Body Cortisol at 30 min ([1]; dietary DHA 21.6 mg g^−1 D.W): 193 ± 26^A pg mg^−1 D.W | Survival (%) at 30 min [2, 6]: 30.7 ± 4.9^B % | Survival (%) at 30 min ([2]; dietary DHA 11.1 mg g^−1 D.W): 48.3 ± 7.2^AB % | Survival (%) at 30 min ([2]; dietary DHA 21.6 mg g^−1 D.W): 50.99 ± 5.8^A % | Improvement of larval growth [3]: ≤ 40% | Larval weight (mean) ([4]; 21.6-mg DHA g^−1 lipids): 20.4 mg dry weight | Larval weight (mean) ([4]; zero dietary DHA): 22.7 mg dry weight

CCCCC/C=C\C/C=C\C/C=C\C/C=C\CCCC(=O)O [AA, arachidonic acid]
Larval growth (weight) ([5]; 25.4% AA of enrichment total fatty acids, 11.1% DHA): 13.1±1.5 mg dry weight | Larval growth (weight) ([5]; no dietary AA, 11.1% DHA of total fatty acids in enrichment lipids): 21.3±1.8 mg dry weight | Body Cortisol at 0 min ([1]; dietary AA 3.0 mg g^−1 D.W): 106 ± 10^B pg mg^−1 D.W | Body Cortisol at 30 min ([1]; dietary AA 3.0 mg g^−1 D.W): 171 ± 18^A pg mg^−1 D.W | Body Cortisol at 0 min ([1]; dietary AA 14.5 mg g^−1 D.W): 142 ± 15^A pg mg^−1 D.W | Body Cortisol at 30 min ([1]; dietary AA 14.5 mg g^−1 D.W): 192 ± 27^A pg mg^−1 D.W | Body Cortisol at 0 min ([1]; dietary AA 24.8 mg g^−1 D.W): 122 ± 10^AB pg mg^−1 D.W | Body Cortisol at 30 min ([1]; dietary AA 24.8 mg g^−1 D.W): 167 ± 20^A pg mg^−1 D.W | Increase in basal cortisol levels ([1]; increasing dietary AA from 3 to 14.5 mg AA g^−1 lipids): ~40% | Mortality after 30 min of exposure ([2]; 3 mg g^−1 lipids dietary AA (AA deficient larvae), 25-psu): over 80% | Survival (%) at 30 min ([2]; dietary AA 3.0 mg g^−1 D.W, pooled over DHA levels): 19.5 ± 1.8^B % | Survival (%) at 30 min ([2]; dietary AA 14.5 mg g^−1 D.W): 61.8±4.2% and 61.8 ± 4.2^A % | Survival (%) at 30 min ([2]; dietary AA 24.8 mg g^−1 D.W): 48.7 ± 5.0^A % | Larval weight ([4]; 3-mg AA g^−1 lipids): 19.4 mg dry weight | Larval weight ([4]; 14.5-mg AA g^−1 lipids): 23.7 mg dry weight

From patent US7067145B2, “Use of arachidonic acid for enhanced culturing of fish larvae and broodstock” (University of Maryland Biotechnology Institute, priority 2000, dated 2006)
